Assay results published in ChEMBL document CHEMBL1201862, “PubChem BioAssay data set” (2004).
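Values below derive from 48-hour exposures of cells grown in 96-well plates, with endpoints linearly interpolated between the two concentrations bracketing the appropriate inhibition level. Here, GI50 denotes the concentration required for 50% inhibition of growth.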 Activity calls are given as the source filed them. Rule as the data show it: active = GI50 up to about 1.1 µM and inactive = higher.

Legend:
Assay in all cases: NCI anticancer screen, dose series, 48 h
HL-60 = tested on: HL-60
CAKI-1 = tested on: CAKI-1
HCT-15 = tested on: HCT-15
M14 = tested on: M14
PC-3 = tested on: PC-3
SN12C = tested on: SN12C
OVCAR-4 = tested on: OVCAR-4
HOP-62 = tested on: HOP-62
EKVX = tested on: EKVX
NCI/ADR-RES = tested on: NCI/ADR-RES
LOX IMVI = tested on: LOX IMVI
UACC-257 = tested on: UACC-257
Malme-3M = tested on: Malme-3M
MCF7 = tested on: MCF7
NCI-H23 = tested on: NCI-H23
SW-620 = tested on: SW-620
IGROV-1 = tested on: IGROV-1
MDA-MB-231 = tested on: MDA-MB-231
MOLT-4 = tested on: MOLT-4
U-251 = tested on: U-251
TK-10 = tested on: TK-10
SNB-19 = tested on: SNB-19
DU-145 = tested on: DU-145
T47D = tested on: T47D
COLO 205 = tested on: COLO 205
OVCAR-8 = tested on: OVCAR-8
RXF 393 = tested on: RXF 393
OVCAR-3 = tested on: OVCAR-3
SK-MEL-5 = tested on: SK-MEL-5
786-0 = tested on: 786-0
Hs-578T = tested on: Hs-578T
SK-MEL-2 = tested on: SK-MEL-2
NCI-H460 = tested on: NCI-H460
A549 = tested on: A549
SR = tested on: SR
CCRF-CEM = tested on: CCRF-CEM
HCC 2998 = tested on: HCC 2998
UACC-62 = tested on: UACC-62
OVCAR-5 = tested on: OVCAR-5
HOP-92 = tested on: HOP-92
K562 = tested on: K562
MDA-MB-435 = tested on: MDA-MB-435
RPMI-8226 = tested on: RPMI-8226
SF-539 = tested on: SF-539
SK-OV-3 = tested on: SK-OV-3
NCI-H226 = tested on: NCI-H226
SK-MEL-28 = tested on: SK-MEL-28
SNB-75 = tested on: SNB-75
UO-31 = tested on: UO-31
HCT-116 = tested on: HCT-116
ACHN = tested on: ACHN
KM12 = tested on: KM12
SF-268 = tested on: SF-268
HT-29 = tested on: HT-29
SF-295 = tested on: SF-295
MDA-N = tested on: MDA-N
A498 = tested on: A498
NCI-H522 = tested on: NCI-H522

Structure (SMILES): CC1(C)NC(C)(C)/C(=N\O)C(=NO)/C1=N/O
- GI50 (HL-60): > 100 µM (inactive)
- GI50 (CAKI-1): > 100 µM (inactive)
- GI50 (HCT-15): > 100 µM
- GI50 (M14): > 100 µM (inactive)
- GI50 (PC-3): > 100 µM (inactive)
- GI50 (SN12C): > 100 µM (inactive)
- GI50 (OVCAR-4): > 100 µM (inactive)
- GI50 (HOP-62): > 100 µM (inactive)
- GI50 (EKVX): > 100 µM (inactive)
- GI50 (NCI/ADR-RES): > 100 µM (inactive)
- GI50 (LOX IMVI): > 100 µM (inactive)
- GI50 (UACC-257): > 100 µM (inactive)
- GI50 (Malme-3M): > 100 µM (inactive)
- GI50 (MCF7): > 100 µM (inactive)
- GI50 (NCI-H23): > 100 µM (inactive)
- GI50 (SW-620): > 100 µM (inactive)
- GI50 (IGROV-1): > 100 µM (inactive)
- GI50 (MDA-MB-231): > 100 µM (inactive)
- GI50 (MOLT-4): > 100 µM (inactive)
- GI50 (U-251): > 100 µM (inactive)
- GI50 (TK-10): > 100 µM (inactive)
- GI50 (SNB-19): > 100 µM (inactive)
- GI50 (DU-145): > 100 µM (inactive)
- GI50 (T47D): > 100 µM (inactive)
- GI50 (COLO 205): > 100 µM (inactive)
- GI50 (OVCAR-8): > 100 µM (inactive)
- GI50 (RXF 393): > 100 µM (inactive)
- GI50 (OVCAR-3): > 100 µM (inactive)
- GI50 (SK-MEL-5): > 100 µM (inactive)
- GI50 (786-0): > 100 µM (inactive)
- GI50 (Hs-578T): > 100 µM (inactive)
- GI50 (SK-MEL-2): > 100 µM (inactive)
- GI50 (NCI-H460): > 100 µM (inactive)
- GI50 (A549): > 100 µM (inactive)
- GI50 (SR): > 100 µM (inactive)
- GI50 (CCRF-CEM): > 100 µM (inactive)
- GI50 (HCC 2998): > 100 µM (inactive)
- GI50 (UACC-62): > 100 µM (inactive)
- GI50 (OVCAR-5): > 100 µM (inactive)
- GI50 (HOP-92): > 100 µM (inactive)
- GI50 (K562): > 100 µM (inactive)
- GI50 (MDA-MB-435): > 100 µM (inactive)
- GI50 (RPMI-8226): > 100 µM (inactive)
- GI50 (SF-539): > 100 µM (inactive)
- GI50 (SK-OV-3): > 100 µM (inactive)
- GI50 (NCI-H226): > 100 µM (inactive)
- GI50 (SK-MEL-28): > 100 µM (inactive)
- GI50 (SNB-75): > 100 µM (inactive)
- GI50 (UO-31): > 100 µM (inactive)
- GI50 (HCT-116): > 100 µM (inactive)
- GI50 (ACHN): > 100 µM (inactive)
- GI50 (KM12): > 100 µM (inactive)
- GI50 (SF-268): > 100 µM (inactive)
- GI50 (HT-29): > 100 µM (inactive)
- GI50 (SF-295): > 100 µM (inactive)
- GI50 (MDA-N): > 100 µM (inactive)

Structure (SMILES): Oc1cn(-c2ccc(Cl)cc2)nc1-c1nnc(-c2ccccc2)o1
- GI50 (HL-60): 0.181 µM (active)
- GI50 (CAKI-1): 0.359 µM (active)
- GI50 (HCT-15): 0.262 µM
- GI50 (PC-3): 1.43 µM (inactive)
- GI50 (SN12C): 1.43 µM (inactive)
- GI50 (OVCAR-4): 19.5 µM (inactive)
- GI50 (HOP-62): 0.132 µM (active)
- GI50 (EKVX): 1.16 µM (inactive)
- GI50 (NCI/ADR-RES): 0.215 µM (active)
- GI50 (UACC-257): 1.63 µM (inactive)
- GI50 (Malme-3M): 8.34 µM (inactive)
- GI50 (MCF7): 0.263 µM (active)
- GI50 (NCI-H23): 0.155 µM (active)
- GI50 (SW-620): 1.94 µM (inactive)
- GI50 (IGROV-1): 0.989 µM (active)
- GI50 (MDA-MB-231): 6.01 µM (inactive)
- GI50 (MOLT-4): 0.193 µM (active)
- GI50 (U-251): 0.2 µM (active)
- GI50 (TK-10): 0.17 µM (active)
- GI50 (A498): 9.4 µM (inactive)
- GI50 (SNB-19): 3.03 µM (inactive)
- GI50 (DU-145): 2.99 µM (inactive)
- GI50 (T47D): 3.86 µM (inactive)
- GI50 (COLO 205): 1.87 µM (inactive)
- GI50 (OVCAR-8): 0.277 µM (active)
- GI50 (RXF 393): 1.14 µM (inactive)
- GI50 (OVCAR-3): 0.404 µM (active)
- GI50 (SK-MEL-5): 0.268 µM (active)
- GI50 (NCI-H522): 1.1 µM (active)
- GI50 (Hs-578T): 0.484 µM (active)
- GI50 (SK-MEL-2): 16.9 µM (inactive)
- GI50 (NCI-H460): 0.236 µM (active)
- GI50 (A549): 0.118 µM (active)
- GI50 (UACC-62): 2.09 µM (inactive)
- GI50 (OVCAR-5): 1.58 µM (inactive)
- GI50 (HOP-92): 18.8 µM (inactive)
- GI50 (K562): 0.122 µM (active)
- GI50 (MDA-MB-435): 0.152 µM (active)
- GI50 (RPMI-8226): 0.728 µM (active)
- GI50 (SF-539): 0.411 µM (active)
- GI50 (SK-OV-3): 12.9 µM (inactive)
- GI50 (NCI-H226): 0.931 µM (active)
- GI50 (SK-MEL-28): 15.2 µM (inactive)
- GI50 (SNB-75): > 22.6 µM (inactive)
- GI50 (UO-31): 0.726 µM (active)
- GI50 (HCT-116): 0.0769 µM (active)
- GI50 (KM12): 0.0847 µM (active)
- GI50 (SF-268): 0.34 µM (active)
- GI50 (HT-29): 2.83 µM (inactive)
- GI50 (SF-295): 0.102 µM (active)
